How the values were obtained:
RARγ = molecular target: T1, RARγ (Homo sapiens, UniProt P13631); assay: Co-transfection assay (CV-1 cells), RARγ agonist activity; format: cell-based
T1 construct: expressed in transfected cells; host or cells: CV-1 (African green monkey kidney fibroblasts)
T1 sequence (P13631 1-454): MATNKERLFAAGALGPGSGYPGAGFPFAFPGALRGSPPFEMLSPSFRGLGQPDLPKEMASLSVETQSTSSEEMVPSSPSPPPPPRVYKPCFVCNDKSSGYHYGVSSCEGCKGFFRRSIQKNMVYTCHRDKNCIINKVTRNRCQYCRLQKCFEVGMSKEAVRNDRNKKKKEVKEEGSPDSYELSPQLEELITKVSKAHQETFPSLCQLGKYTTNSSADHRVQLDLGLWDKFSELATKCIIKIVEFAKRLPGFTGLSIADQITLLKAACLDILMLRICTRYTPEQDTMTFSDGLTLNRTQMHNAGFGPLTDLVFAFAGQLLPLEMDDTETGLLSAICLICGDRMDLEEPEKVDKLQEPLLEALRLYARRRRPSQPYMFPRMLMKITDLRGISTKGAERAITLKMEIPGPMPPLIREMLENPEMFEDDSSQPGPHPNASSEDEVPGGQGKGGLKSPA

RARs = assay: Co-transfection assay, RAR subfamily; format: cell-based, human
Description: (§1) Utilizing the "cis-trans" or "co-transfection" assay described by Evans et al., Science, 240:889-95 (May 13, 1988), the disclosure of which is herein incorporated by reference, the retinoid compounds of the present invention were tested and found to have strong, specific activity as either selective RAR agonists, selective RXR agonists, or as pan-agonist activators of both RAR and RXR receptors. This assay is described in further detail in U.S. Pat. Nos. 4,981,784 and 5,071,773, the disclosures of which are incorporated herein by reference.
(§2) The co-transfection assay provides a method for identifying functional agonists which mimic, or antagonists which inhibit, the effect of native hormones, and quantifying their activity for responsive IR proteins. In this regard, the co-transfection assay mimics an in vivo system in the laboratory. Importantly, activity in the co-transfection assay correlates very well with known in vivo activity, such that the co-transfection assay functions as a qualitative and quantitative predictor of a tested compounds in vivo pharmacology. See, e.g., T. Berger et al. 41 J. Steroid Biochem. Molec. Biol. 773 (1992), the disclosure of which is herein incorporated by reference.
In the co-transfection assay, a cloned cDNA for an IR (e.g., human RARα, RARβ, RXRγ) under the control of a constitutive promoter (e.g., the SV 40 promoter) is introduced by transfection (a procedure to induce cells to take up foreign genes) into a background cell substantially devoid of endogenous IRs. This introduced gene directs the recipient cells to make the IR protein of interest. A second gene is also introduced (co-transfected) into the same cells in conjunction with the IR gene. This second gene, comprising the cDNA for a reporter protein, such as firefly luciferase (LUC), is controlled by an appropriate hormone responsive promoter containing a hormone response element (HRE). This reporter plasmid functions as a reporter for the transcription-modulating activity of the target IR. Thus, the reporter acts as a surrogate for the products (mRNA then protein) normally expressed by a gene under control of the target receptor and its native hormone.
The co-transfection assay can detect small molecule agonists or antagonists of target IRs. Exposing the transfected cells to an agonist ligand compound increases reporter activity in the transfected cells. This activity can be conveniently measured, e.g., by increasing luciferase production, which reflects compound-dependent, IR-mediated increases in reporter transcription. […] . Increasing concentrations of a suspected antagonist will decrease the reporter signal (e.g., luciferase production). The co-transfection assay is therefore useful to detect both agonists and antagonists of specific IRs. Furthermore, it determines not only whether a compound interacts with a particular IR, but whether this interaction mimics (agonizes) or blocks (antagonizes) the effects of the native regulatory molecules on target gene expression, as well as the specificity and strength of this interaction. […]

RAR and RXR receptors = assay: Binding to the RAR and RXR receptors; conditions: relative to ATRA (RAR) and 9-cis (RXR)
AML-193 = assay: Incorporation of 3H-thymidine, AML-193; conditions: 96 h, read-out: TdR IC50 (50% inhibition of maximally observed thymidine incorporation)
RARα = molecular target: T2, RARα (Homo sapiens, UniProt P10276); assay: Co-transfection assay (CV-1 cells), RARα agonist activity; format: cell-based; conditions: read-out: RARα Pot (potency, EC50)
T2 construct: expressed in transfected cells; host or cells: CV-1 (African green monkey kidney fibroblasts)
T2 sequence (P10276 1-462): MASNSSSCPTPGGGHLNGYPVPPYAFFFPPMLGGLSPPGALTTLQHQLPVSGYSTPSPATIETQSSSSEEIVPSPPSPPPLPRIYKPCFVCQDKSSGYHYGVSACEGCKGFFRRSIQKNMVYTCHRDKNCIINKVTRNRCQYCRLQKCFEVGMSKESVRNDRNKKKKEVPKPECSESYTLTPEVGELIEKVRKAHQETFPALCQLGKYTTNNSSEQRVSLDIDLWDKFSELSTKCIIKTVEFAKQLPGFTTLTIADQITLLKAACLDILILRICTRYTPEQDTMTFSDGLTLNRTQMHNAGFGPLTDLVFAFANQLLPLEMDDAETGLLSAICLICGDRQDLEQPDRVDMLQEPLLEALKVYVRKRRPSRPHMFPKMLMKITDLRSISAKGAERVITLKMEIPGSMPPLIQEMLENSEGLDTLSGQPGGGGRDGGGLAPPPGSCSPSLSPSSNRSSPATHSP

RARβ = molecular target: T3, RARβ (Homo sapiens, UniProt P10826); assay: Co-transfection assay (CV-1 cells), RARβ agonist activity; format: cell-based; conditions: read-out: RARβ Pot (potency, EC50)
T3 construct: expressed in transfected cells; host or cells: CV-1 (African green monkey kidney fibroblasts)
T3 sequence (P10826 1-448 isoform P10826-2): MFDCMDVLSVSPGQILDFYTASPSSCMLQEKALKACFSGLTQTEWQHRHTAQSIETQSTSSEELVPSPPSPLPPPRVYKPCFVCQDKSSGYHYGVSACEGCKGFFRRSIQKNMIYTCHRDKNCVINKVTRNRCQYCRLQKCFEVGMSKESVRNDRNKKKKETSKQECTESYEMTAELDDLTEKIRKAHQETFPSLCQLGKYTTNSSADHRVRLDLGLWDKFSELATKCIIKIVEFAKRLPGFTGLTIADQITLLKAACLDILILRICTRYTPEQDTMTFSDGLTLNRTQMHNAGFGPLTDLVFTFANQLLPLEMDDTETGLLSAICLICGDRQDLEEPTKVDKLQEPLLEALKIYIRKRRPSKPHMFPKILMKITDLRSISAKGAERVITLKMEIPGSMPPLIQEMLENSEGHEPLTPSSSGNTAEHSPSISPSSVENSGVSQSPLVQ

RXRα = molecular target: T4, RXRα (Homo sapiens, UniProt P19793); assay: Co-transfection assay (CV-1 cells), RXRα agonist activity; format: cell-based; conditions: read-out: RXRα Pot (potency, EC50)
T4 construct: expressed in transfected cells; host or cells: CV-1 (African green monkey kidney fibroblasts)
T4 sequence (P19793 1-462): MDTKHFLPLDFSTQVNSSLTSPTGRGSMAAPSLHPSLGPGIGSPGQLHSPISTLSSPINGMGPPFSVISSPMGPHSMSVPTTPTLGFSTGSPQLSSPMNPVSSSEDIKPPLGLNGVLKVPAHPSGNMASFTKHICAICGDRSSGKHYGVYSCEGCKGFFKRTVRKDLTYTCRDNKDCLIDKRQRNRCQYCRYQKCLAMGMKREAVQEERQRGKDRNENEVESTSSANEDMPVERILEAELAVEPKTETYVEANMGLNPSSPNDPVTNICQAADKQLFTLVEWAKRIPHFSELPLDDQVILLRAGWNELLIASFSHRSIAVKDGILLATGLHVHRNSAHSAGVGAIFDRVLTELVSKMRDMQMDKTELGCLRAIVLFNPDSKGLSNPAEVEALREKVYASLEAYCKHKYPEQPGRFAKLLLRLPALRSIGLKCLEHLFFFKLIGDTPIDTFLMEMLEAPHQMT

RXRβ = molecular target: T5, RXRβ (Mus musculus, UniProt P28704); assay: Co-transfection assay (CV-1 cells), RXRβ agonist activity; format: cell-based; conditions: read-out: RXRβ Pot (potency, EC50)
T5 construct: expressed in transfected cells; host or cells: CV-1 (African green monkey kidney fibroblasts)
T5 sequence (P28704 1-520): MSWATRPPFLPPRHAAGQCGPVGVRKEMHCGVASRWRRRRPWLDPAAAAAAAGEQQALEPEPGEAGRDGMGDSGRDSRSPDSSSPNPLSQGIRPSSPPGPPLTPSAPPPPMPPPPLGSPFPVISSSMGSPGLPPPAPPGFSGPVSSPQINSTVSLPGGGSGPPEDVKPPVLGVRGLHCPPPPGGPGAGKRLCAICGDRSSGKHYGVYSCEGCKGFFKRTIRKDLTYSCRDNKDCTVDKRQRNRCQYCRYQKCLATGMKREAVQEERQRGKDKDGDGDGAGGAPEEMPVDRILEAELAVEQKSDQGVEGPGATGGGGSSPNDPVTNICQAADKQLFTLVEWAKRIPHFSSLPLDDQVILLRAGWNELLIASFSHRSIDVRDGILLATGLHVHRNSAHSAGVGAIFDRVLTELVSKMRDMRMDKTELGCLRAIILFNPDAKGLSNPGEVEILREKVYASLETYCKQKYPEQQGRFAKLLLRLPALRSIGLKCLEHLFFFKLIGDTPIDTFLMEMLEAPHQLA

RXRγ = molecular target: T6, RXRγ (Mus musculus, UniProt P28705); assay: Co-transfection assay (CV-1 cells), RXRγ agonist activity; format: cell-based; conditions: read-out: RXRγ Pot (potency, EC50)
T6 construct: expressed in transfected cells; host or cells: CV-1 (African green monkey kidney fibroblasts)
T6 sequence (P28705 1-463): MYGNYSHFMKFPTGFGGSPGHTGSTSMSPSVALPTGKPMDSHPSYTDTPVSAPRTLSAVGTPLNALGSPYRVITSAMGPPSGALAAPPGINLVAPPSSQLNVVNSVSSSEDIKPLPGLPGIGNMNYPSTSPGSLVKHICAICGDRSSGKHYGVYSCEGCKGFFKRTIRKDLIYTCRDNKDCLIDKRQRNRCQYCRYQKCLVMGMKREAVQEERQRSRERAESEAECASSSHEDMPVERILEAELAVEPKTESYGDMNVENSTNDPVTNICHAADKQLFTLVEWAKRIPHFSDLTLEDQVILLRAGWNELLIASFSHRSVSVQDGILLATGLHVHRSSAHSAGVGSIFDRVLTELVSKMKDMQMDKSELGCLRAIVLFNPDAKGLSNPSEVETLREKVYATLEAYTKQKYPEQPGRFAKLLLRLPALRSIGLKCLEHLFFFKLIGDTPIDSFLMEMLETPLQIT

RXR = assay: Co-transfection assay, RXR subfamily; format: cell-based
Description: as §1
as §2, with “Biol. 773 (1992), the disclosure of which is herein incorporated by reference.” left out
The co-transfection assay can detect small molecule agonists or antagonists of target IRs. […] This activity can be conveniently measured, e.g., by increasing luciferase production, which reflects compound-dependent, IR-mediated increases in reporter transcription. […]

CC(/C=C/C=C(\C)c1cc(C(C)(C)C)cc(C(C)(C)C)c1)=C\C(=O)O [Compound 9, (2E, 4E, 6E)-7-(3,5-Di-t-butylphenyl)-3-methylocta-2,4,6-trienoic acid]
activity on RARγ (in words) (RARγ): sub-nanomolar activity
RAR activity (in words) (RARs): extremely potent RAR active compounds
binding compared to ATRA and 9-cis (in words) (RAR and RXR receptors): equal or superior binding
IC50 (AML-193): 0.1 nM

CCCC(O)c1cc(C(C)(C)C)cc(C(C)(C)C)c1 (centres unmarked) [Compound 19, 1-(3,5-Di-t-butylphenyl)butan-1-ol]
EC50 (RARα): 59 nM
EC50 (RARβ): 23 nM
EC50 (RARγ; co-transfection assay, CV-1 cells, read-out: RARγ Pot (potency, EC50)): 16 nM
EC50 (RXRα): 127 nM
EC50 (RXRβ): 48 nM
EC50 (RXRγ): 56 nM

CCC/C(=C/C=C/C(C)=C/C(=O)O)c1cc(C(C)(C)C)cc(C(C)(C)C)c1 [Compound 28, (2E. 4E 6Z)-7-(3,5-Di-t-butylphenyl)-3-methyldeca-2,4,6-trienoic acid]
RXR activity (in words) (RXR): very potent and selective RXR active compound
